Measurements taken from PubChem BioAssay AID2060512 (Molecular Pharmacology Branch, DTP, NCI, 2025).

Tested on: 186277-243-T-J2-PDC complex spheroid viability
Assay: Anticancer human tumor 186277-243-T-J2-PDC patient-derived colon adenocarcinoma cell line growth inhibition [GQUAD]
Conditions: for IC50: curve of first compound; for viability, T/C: stronger effect = lower value
Procedure, shortened: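 Viability of tumor cells grown as complex spheroids with endothelial and stromal cells, exposed to drug combinations. Top concentration at or near clinical Cmax (else 10 microM), diluted in half-log increments.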

[1] = second compound 0.0316 µM, first compound 0.0316 µM
[2] = second compound 0.0316 µM, first compound 0.1 µM
[3] = second compound 0.0316 µM, first compound 0.316 µM
[4] = second compound 0.0316 µM, first compound 1 µM
[5] = second compound 0.0316 µM, first compound 3.16 µM
[6] = second compound 0.0316 µM, first compound 10 µM
[7] = second compound 0.1 µM, first compound 0.0316 µM
[8] = second compound 0.1 µM, first compound 0.1 µM
[9] = second compound 0.1 µM, first compound 0.316 µM
[10] = second compound 0.1 µM, first compound 1 µM
[11] = second compound 0.1 µM, first compound 3.16 µM
[12] = second compound 0.1 µM, first compound 10 µM
[13] = second compound 0.316 µM, first compound 0.0316 µM
[14] = second compound 0.316 µM, first compound 0.1 µM
[15] = second compound 0.316 µM, first compound 0.316 µM
[16] = second compound 0.316 µM, first compound 1 µM
[17] = second compound 0.316 µM, first compound 3.16 µM
[18] = second compound 0.316 µM, first compound 10 µM
[19] = second compound 1 µM, first compound 0.0316 µM
[20] = second compound 1 µM, first compound 0.1 µM
[21] = second compound 1 µM, first compound 0.316 µM
[22] = second compound 1 µM, first compound 1 µM
[23] = second compound 1 µM, first compound 3.16 µM
[24] = second compound 1 µM, first compound 10 µM
[25] = second compound 3.16 µM, first compound 0.0316 µM
[26] = second compound 3.16 µM, first compound 0.1 µM
[27] = second compound 3.16 µM, first compound 0.316 µM
[28] = second compound 3.16 µM, first compound 1 µM
[29] = second compound 3.16 µM, first compound 3.16 µM
[30] = second compound 3.16 µM, first compound 10 µM
[31] = second compound 10 µM, first compound 0.0316 µM
[32] = second compound 10 µM, first compound 0.1 µM
[33] = second compound 10 µM, first compound 0.316 µM
[34] = second compound 10 µM, first compound 1 µM
[35] = second compound 10 µM, first compound 3.16 µM
[36] = second compound 10 µM, first compound 10 µM
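Wherever viability, T/C is given: 100% = DMSO vehicle control viability.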

Which results are given for CC(=O)O[C@H]1C(=O)[C@@]2(C)[C@H]([C@H](OC(=O)c3ccccc3)[C@]3(O)C[C@H](OC(=O)[C@H](O)[C@@H](NC(=O)c4ccccc4)c4ccccc4)C(C)=C1C3(C)C)[C@]1(OC(C)=O)CO[C@@H]1C[C@@H]2O + CN(C)c1ccc(Nc2c3ccc(NC(=O)CCN4CCCC4)cc3nc3cc(NC(=O)CCN4CCCC4)ccc23)cc1?
IC50 (second compound 0.0316 µM): < 31.6 nM; IC50 (second compound 0.1 µM): < 31.6 nM; IC50 (second compound 0.316 µM): < 31.6 nM; IC50 (second compound 1 µM): < 31.6 nM; IC50 (second compound 3.16 µM): < 31.6 nM; IC50 (second compound 10 µM): < 31.6 nM; viability, T/C [1]: 19.8%; viability, T/C [2]: 6.1%; viability, T/C [3]: 5.38%; viability, T/C [4]: 3.55%; viability, T/C [5]: 3.54%; viability, T/C [6]: 3.9%; viability, T/C [7]: 18.9%; viability, T/C [8]: 7.57%; viability, T/C [9]: 4.53%; viability, T/C [10]: 3.24%; viability, T/C [11]: 4.81%; viability, T/C [12]: 4.04%; viability, T/C [13]: 20.1%; viability, T/C [14]: 7.12%; viability, T/C [15]: 4.2%; viability, T/C [16]: 4.04%; viability, T/C [17]: 4.15%; viability, T/C [18]: 3.98%; viability, T/C [19]: 11.8%; viability, T/C [20]: 7.8%; viability, T/C [21]: 5.59%; viability, T/C [22]: 3.93%; viability, T/C [23]: 4.16%; viability, T/C [24]: 4.31%; viability, T/C [25]: 19.9%; viability, T/C [26]: 6.16%; viability, T/C [27]: 3.9%; viability, T/C [28]: 4.93%; viability, T/C [29]: 4.08%; viability, T/C [30]: 4.24%; viability, T/C [31]: 19.5%; viability, T/C [32]: 6.64%; viability, T/C [33]: 3.63%; viability, T/C [34]: 3.44%; viability, T/C [35]: 2.96%; viability, T/C [36]: 2.41%

Which IC50 (second compound 0.0316 µM) does the source give for C#Cc1c(F)ccc2cc(O)cc(-c3ncc4c(N5CC6CCC(C5)N6)nc(OCC56CCCN5CC(F)C6)nc4c3F)c12 (centres undefined) + Cc1cnc(CNC(=O)c2c(=O)c3ccc(N4CCCN(C)CC4)nc3n3c2sc2ccccc23)cn1 here?
The IC50 was 58.7 nM.

And the IC50 (second compound 0.1 µM)?
Its IC50 is < 31.6 nM.

What about the IC50 (second compound 0.316 µM) of the same compound?
Its IC50 is < 31.6 nM.

What about the IC50 (second compound 1 µM) of the same compound?
The IC50 was < 31.6 nM.

What about the IC50 (second compound 3.16 µM) of the same compound?
Its IC50 is < 31.6 nM.

What about the IC50 (second compound 10 µM) of the same compound?
The IC50 was < 31.6 nM.

What about the viability, T/C [1] of the same compound?
Its viability, T/C is 75.4%.

And the viability, T/C [2]?
The viability, T/C was 26.8%.

What about the viability, T/C [3] of the same compound?
Its viability, T/C is 19.9%.

What about the viability, T/C [4] of the same compound?
The viability, T/C was 8.12%.

What about the viability, T/C [5] of the same compound?
Its viability, T/C is 13.9%.

And the viability, T/C [6]?
The viability, T/C was 11.4%.

What about the viability, T/C [7] of the same compound?
Its viability, T/C is 40%.

And the viability, T/C [8]?
The viability, T/C was 18.8%.

What about the viability, T/C [9] of the same compound?
Its viability, T/C is 9.79%.

And the viability, T/C [10]?
The viability, T/C was 7.98%.

What about the viability, T/C [11] of the same compound?
Its viability, T/C is 9.12%.

What about the viability, T/C [12] of the same compound?
The viability, T/C was 5.32%.

And the viability, T/C [13]?
The viability, T/C was 23.8%.

What about the viability, T/C [14] of the same compound?
Its viability, T/C is 14.6%.

What about the viability, T/C [15] of the same compound?
Its viability, T/C is 8.91%.

And the viability, T/C [16]?
The viability, T/C was 5.69%.

What about the viability, T/C [17] of the same compound?
The viability, T/C was 5.84%.

And the viability, T/C [18]?
Its viability, T/C is 4.29%.

And the viability, T/C [19]?
The viability, T/C was 18.2%.

And the viability, T/C [20]?
The viability, T/C was 9.62%.

And the viability, T/C [21]?
Its viability, T/C is 6.74%.

And the viability, T/C [22]?
Its viability, T/C is 5.02%.

What about the viability, T/C [23] of the same compound?
Its viability, T/C is 5.11%.

What about the viability, T/C [24] of the same compound?
Its viability, T/C is 3.11%.

What about the viability, T/C [25] of the same compound?
Its viability, T/C is 17.2%.

And the viability, T/C [26]?
Its viability, T/C is 12.5%.

And the viability, T/C [27]?
Its viability, T/C is 5.45%.

What about the viability, T/C [28] of the same compound?
The viability, T/C was 4.44%.

What about the viability, T/C [29] of the same compound?
Its viability, T/C is 4.72%.

What about the viability, T/C [30] of the same compound?
The viability, T/C was 2.99%.

What about the viability, T/C [31] of the same compound?
Its viability, T/C is 14.2%.

And the viability, T/C [32]?
Its viability, T/C is 9.54%.

What about the viability, T/C [33] of the same compound?
The viability, T/C was 4.98%.

And the viability, T/C [34]?
Its viability, T/C is 0.27%.

What about the viability, T/C [35] of the same compound?
The viability, T/C was 2.03%.

What about the viability, T/C [36] of the same compound?
Its viability, T/C is 0.19%.
